Experiment: xn = mol fraction of the nth substance listed
Conditions: 101 kPa, Liquid; for viscosity: Concentric cylinders viscometry; for mass density: Vibrating tube method

O=S1(=O)CCCC1 [sulfolane] + CC(C)O
Conditions | mass density, 303.15 K [kg/m3] | mass density, 313.15 K [kg/m3] | mass density, 323.15 K [kg/m3] | mass density, 333.15 K [kg/m3] | mass density, 343.15 K [kg/m3] | viscosity, 303.15 K [mPa·s] | viscosity, 313.15 K [mPa·s] | viscosity, 323.15 K [mPa·s] | viscosity, 333.15 K [mPa·s] | viscosity, 343.15 K [mPa·s]
x1 = 0.075 | 823.6 | 814.6 | 805.3 | 795.5 | 785.2 | 1.62 | 1.27 | 1.01 | 0.81 | 0.66
x1 = 0.164 | 875.9 | 866.9 | 857.5 | 847.9 | 837.9 | 1.69 | 1.34 | 1.08 | 0.89 | 0.74
x1 = 0.25 | 924 | 914.8 | 905.4 | 896 | 886 | 1.85 | 1.48 | 1.2 | 1 | 0.84
x1 = 0.353 | 978.7 | 969.6 | 960.4 | 950.7 | 941.1 | 2.14 | 1.71 | 1.41 | 1.18 | 0.99
x1 = 0.437 | 1021.3 | 1012.1 | 1002.9 | 993.8 | 984.3 | 2.43 | 1.96 | 1.62 | 1.36 | 1.14
x1 = 0.536 | 1069.3 | 1060.2 | 1050.9 | 1041.6 | 1032.1 | 2.91 | 2.35 | 1.95 | 1.64 | 1.4
x1 = 0.656 | 1124.3 | 1115.3 | 1106.2 | 1097 | 1087.7 | 3.75 | 3.03 | 2.5 | 2.11 | 1.8
x1 = 0.768 | 1172.1 | 1163.1 | 1154.1 | 1145.1 | 1135.9 | 4.97 | 3.99 | 3.27 | 2.73 | 2.32
x1 = 0.88 | 1219.3 | 1210.4 | 1201.6 | 1192.6 | 1183.7 | 6.92 | 5.48 | 4.45 | 3.68 | 3.1
x1 = 1 | 1262.9 | 1254.1 | 1245.2 | 1236.6 | 1228.1 | 10.4 | 8.07 | 6.45 | 5.22 | 4.32

O=S1(=O)CCCC1 [sulfolane] + CCC(C)O
Conditions | mass density, 303.15 K [kg/m3] | mass density, 313.15 K [kg/m3] | mass density, 323.15 K [kg/m3] | mass density, 333.15 K [kg/m3] | mass density, 343.15 K [kg/m3] | viscosity, 303.15 K [mPa·s] | viscosity, 313.15 K [mPa·s] | viscosity, 323.15 K [mPa·s] | viscosity, 333.15 K [mPa·s] | viscosity, 343.15 K [mPa·s]
x1 = 0.099 | 846.6 | 837.8 | 828.8 | 819.3 | 809.4 | 2.16 | 1.62 | 1.26 | 1 | 0.8
x1 = 0.198 | 894.1 | 885.2 | 876 | 866.7 | 857 | 2.17 | 1.67 | 1.33 | 1.08 | 0.89
x1 = 0.298 | 941.7 | 932.9 | 923.8 | 914.6 | 905 | 2.34 | 1.83 | 1.49 | 1.21 | 1.01
x1 = 0.38 | 980.6 | 971.7 | 962.6 | 953.3 | 943.9 | 2.56 | 2.01 | 1.63 | 1.35 | 1.14
x1 = 0.499 | 1036.4 | 1027.5 | 1018.4 | 1009.3 | 1000 | 2.98 | 2.37 | 1.93 | 1.61 | 1.37
x1 = 0.593 | 1079.6 | 1070.7 | 1061.8 | 1052.7 | 1043.5 | 3.46 | 2.77 | 2.27 | 1.89 | 1.62
x1 = 0.691 | 1125.1 | 1116.2 | 1107.2 | 1098.2 | 1089.2 | 4.19 | 3.36 | 2.76 | 2.31 | 1.97
x1 = 0.799 | 1173.9 | 1165.1 | 1156.2 | 1147.4 | 1138.5 | 5.41 | 4.32 | 3.53 | 2.94 | 2.49
x1 = 0.9 | 1219 | 1210.1 | 1201.4 | 1192.5 | 1183.7 | 7.23 | 5.72 | 4.63 | 3.82 | 3.21
x1 = 1 | 1262.9 | 1254.1 | 1245.2 | 1236.6 | 1228.1 | 10.4 | 8.07 | 6.45 | 5.22 | 4.32

O=S1(=O)CCCC1 [sulfolane] + OCCOCCO
Conditions | mass density, 303.15 K [kg/m3] | mass density, 313.15 K [kg/m3] | mass density, 323.15 K [kg/m3] | mass density, 333.15 K [kg/m3] | mass density, 343.15 K [kg/m3] | viscosity, 303.15 K [mPa·s] | viscosity, 313.15 K [mPa·s] | viscosity, 323.15 K [mPa·s] | viscosity, 333.15 K [mPa·s] | viscosity, 343.15 K [mPa·s]
x1 = 0.097 | 1125 | 1117.6 | 1110.2 | 1102.7 | 1094.9 | 19.1 | 12.9 | 9.13 | 6.74 | 5.15
x1 = 0.198 | 1140 | 1132.5 | 1124.8 | 1117 | 1109.1 | 16.3 | 11.2 | 8.04 | 6.01 | 4.65
x1 = 0.319 | 1158.2 | 1150.3 | 1142.3 | 1134.2 | 1126.1 | 13.8 | 9.62 | 7.03 | 5.35 | 4.19
x1 = 0.414 | 1172.2 | 1164.2 | 1156.1 | 1147.8 | 1139.6 | 12.2 | 8.7 | 6.46 | 4.97 | 3.94
x1 = 0.499 | 1185.2 | 1176.9 | 1168.6 | 1160.3 | 1151.9 | 11.2 | 8.07 | 6.07 | 4.72 | 3.78
x1 = 0.614 | 1202.9 | 1194.5 | 1186 | 1177.5 | 1169 | 10.2 | 7.49 | 5.72 | 4.5 | 3.64
x1 = 0.698 | 1215.6 | 1207.1 | 1198.5 | 1190 | 1181.3 | 9.72 | 7.25 | 5.61 | 4.47 | 3.64
x1 = 0.789 | 1229.7 | 1221.1 | 1212.5 | 1203.8 | 1195.1 | 9.35 | 7.08 | 5.54 | 4.46 | 3.66
x1 = 0.887 | 1245 | 1236.3 | 1227.5 | 1218.8 | 1210.1 | 9.39 | 7.23 | 5.72 | 4.64 | 3.84
x1 = 1 | 1262.9 | 1254.1 | 1245.2 | 1236.6 | 1228.1 | 10.4 | 8.07 | 6.45 | 5.22 | 4.32

OCCOCCOCCO [triethylene glycol] + O=S1(=O)CCCC1
Conditions | mass density, 303.15 K [kg/m3] | mass density, 313.15 K [kg/m3] | mass density, 323.15 K [kg/m3] | mass density, 333.15 K [kg/m3] | mass density, 343.15 K [kg/m3] | viscosity, 303.15 K [mPa·s] | viscosity, 313.15 K [mPa·s] | viscosity, 323.15 K [mPa·s] | viscosity, 333.15 K [mPa·s] | viscosity, 343.15 K [mPa·s]
x2 = 0 | 1116.5 | 1108.9 | 1101.1 | 1093.4 | 1085.5 | 29.5 | 19.3 | 13.3 | 9.58 | 7.16
x2 = 0.123 | 1130.3 | 1122.4 | 1114.6 | 1106.6 | 1098.5 | 25.6 | 16.9 | 11.8 | 8.6 | 6.49
x2 = 0.268 | 1147.6 | 1139.5 | 1131.5 | 1123.3 | 1115 | 21.2 | 14.3 | 10.1 | 7.49 | 5.74
x2 = 0.505 | 1178.8 | 1170.5 | 1161.9 | 1153.4 | 1145 | 15.6 | 10.9 | 8 | 6.09 | 4.78
x2 = 0.598 | 1192.2 | 1183.7 | 1175.1 | 1166.6 | 1158 | 13.9 | 9.9 | 7.36 | 5.67 | 4.49
x2 = 0.678 | 1204.5 | 1196 | 1187.5 | 1178.8 | 1170.1 | 12.6 | 9.13 | 6.88 | 5.36 | 4.29
x2 = 0.768 | 1219 | 1210.3 | 1201.5 | 1192.9 | 1184.3 | 11.4 | 8.4 | 6.43 | 5.09 | 4.12
x2 = 0.837 | 1231.3 | 1222.6 | 1213.9 | 1205.2 | 1196.4 | 10.8 | 8.11 | 6.29 | 5.01 | 4.1
x2 = 0.929 | 1248.8 | 1240 | 1231.2 | 1222.4 | 1213.7 | 10.3 | 7.89 | 6.22 | 5.02 | 4.13

Source: the NIST ThermoML archive (doi:10.1021/je500153g)
